Laboratory results taken from ChEMBL document CHEMBL1759975, “Development of selective and reversible pyrazoline based MAO-B inhibitors: virtual screening, synthesis and biological evaluation” (Bioorg Med Chem Lett, 2011).

What was measured:
[1] = target: T1, Amine oxidase [flavin-containing] A (Rattus norvegicus, UniProt P21396); test: Competitive inhibition of rat liver MAO-A after 60 mins using p-tyramine as substrate by spectrophotometry
T1 sequence (P21396 whole entry): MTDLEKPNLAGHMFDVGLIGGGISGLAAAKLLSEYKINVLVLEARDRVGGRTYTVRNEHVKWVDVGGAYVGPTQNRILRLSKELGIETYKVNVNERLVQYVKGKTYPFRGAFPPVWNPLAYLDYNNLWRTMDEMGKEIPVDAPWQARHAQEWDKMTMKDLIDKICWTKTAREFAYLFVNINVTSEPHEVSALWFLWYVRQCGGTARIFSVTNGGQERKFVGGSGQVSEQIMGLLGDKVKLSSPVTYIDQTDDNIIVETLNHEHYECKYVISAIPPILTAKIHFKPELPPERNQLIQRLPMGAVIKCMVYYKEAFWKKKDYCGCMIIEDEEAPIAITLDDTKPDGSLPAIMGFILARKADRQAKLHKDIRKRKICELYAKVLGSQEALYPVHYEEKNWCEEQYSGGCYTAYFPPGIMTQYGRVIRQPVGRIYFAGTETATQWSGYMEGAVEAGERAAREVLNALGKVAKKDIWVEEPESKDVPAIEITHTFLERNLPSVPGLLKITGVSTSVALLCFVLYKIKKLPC

[2] = target: T2, Amine oxidase [flavin-containing] A (Homo sapiens, UniProt P21397); test: Competitive inhibition of human recombinant MAO-A after 60 mins using p-tyramine as substrate by spectrophotometry
T2 sequence (P21397 whole entry): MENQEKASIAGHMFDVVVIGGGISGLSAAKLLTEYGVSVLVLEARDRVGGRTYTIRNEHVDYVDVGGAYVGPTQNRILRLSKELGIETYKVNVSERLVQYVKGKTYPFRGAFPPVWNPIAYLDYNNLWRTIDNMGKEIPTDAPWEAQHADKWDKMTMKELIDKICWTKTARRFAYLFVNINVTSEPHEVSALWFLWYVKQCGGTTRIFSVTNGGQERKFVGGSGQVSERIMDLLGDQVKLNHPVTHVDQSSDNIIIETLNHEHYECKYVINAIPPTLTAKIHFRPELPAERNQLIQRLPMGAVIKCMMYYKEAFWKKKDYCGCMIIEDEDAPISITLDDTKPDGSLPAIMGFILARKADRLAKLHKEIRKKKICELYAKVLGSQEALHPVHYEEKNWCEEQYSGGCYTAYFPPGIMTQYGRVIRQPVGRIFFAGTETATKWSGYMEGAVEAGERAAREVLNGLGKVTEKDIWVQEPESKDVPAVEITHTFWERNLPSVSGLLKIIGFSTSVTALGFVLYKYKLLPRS

[3] = target: T3, Amine oxidase [flavin-containing] B (Rattus norvegicus, UniProt P19643); test: Competitive inhibition of rat liver MAO-B after 60 mins using p-tyramine as substrate by spectrophotometry
T3 sequence (P19643 whole entry): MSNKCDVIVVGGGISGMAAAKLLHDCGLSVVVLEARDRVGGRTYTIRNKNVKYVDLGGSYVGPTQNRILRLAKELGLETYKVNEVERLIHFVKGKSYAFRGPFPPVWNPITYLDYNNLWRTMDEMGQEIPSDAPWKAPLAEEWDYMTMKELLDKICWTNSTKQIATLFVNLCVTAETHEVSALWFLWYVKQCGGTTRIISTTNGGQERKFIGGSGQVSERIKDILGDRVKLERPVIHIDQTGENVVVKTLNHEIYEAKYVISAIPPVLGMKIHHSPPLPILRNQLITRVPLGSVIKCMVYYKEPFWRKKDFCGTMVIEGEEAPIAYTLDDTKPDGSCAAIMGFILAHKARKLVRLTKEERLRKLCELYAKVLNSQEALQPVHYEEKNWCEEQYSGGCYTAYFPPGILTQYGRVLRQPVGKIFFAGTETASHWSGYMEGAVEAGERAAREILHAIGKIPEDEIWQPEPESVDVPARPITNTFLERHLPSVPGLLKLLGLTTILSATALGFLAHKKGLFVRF

[4] = target: T4, Amine oxidase [flavin-containing] B (Homo sapiens, UniProt P27338)
T4 sequence (P27338 whole entry): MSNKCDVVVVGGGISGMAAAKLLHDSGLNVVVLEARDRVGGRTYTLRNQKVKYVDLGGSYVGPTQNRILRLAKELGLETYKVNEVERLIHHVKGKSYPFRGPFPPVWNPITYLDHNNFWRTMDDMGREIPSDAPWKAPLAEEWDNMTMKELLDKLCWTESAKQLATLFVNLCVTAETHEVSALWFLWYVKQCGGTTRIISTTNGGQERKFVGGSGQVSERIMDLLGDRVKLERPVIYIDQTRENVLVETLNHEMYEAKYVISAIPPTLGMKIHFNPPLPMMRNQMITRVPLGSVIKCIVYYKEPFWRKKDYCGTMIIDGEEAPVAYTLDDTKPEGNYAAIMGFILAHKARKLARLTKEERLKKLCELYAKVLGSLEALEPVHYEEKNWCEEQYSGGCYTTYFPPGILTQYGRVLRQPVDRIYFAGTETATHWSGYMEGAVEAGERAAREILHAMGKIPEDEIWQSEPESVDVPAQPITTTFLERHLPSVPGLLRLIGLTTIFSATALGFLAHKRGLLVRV
Description: Competitive inhibition of human recombinant MAO-B after 60 mins using p-tyramine as substrate by spectrophotometry

Compound	Ki [1] [nM]	Ki [2] [nM]	Ki [3] [nM]	Ki [4] [nM]
c1ccc(C2CC(c3c4ccccc4cc4ccccc34)=NN2)cc1 (stereo not drawn)	397	332	3.43	4.21
O=[N+]([O-])c1cccc(C2CC(c3c4ccccc4cc4ccccc34)=NN2)c1 (stereo not drawn)	43.9	32.2	0.45	0.31
c1ccc(C2CC(c3c4ccccc4cc4ccccc34)=NN2)nc1 (stereo not drawn)	242	205	9.91	5.75
Oc1ccccc1C1CC(c2c3ccccc3cc3ccccc23)=NN1 (stereo not drawn)	77.6	69.9	5.91	7.35
Oc1ccc(C2CC(c3c4ccccc4cc4ccccc34)=NN2)c(O)c1 (stereo not drawn)	95.6	81.5	4.77	5.54

Continued, values first:

Ki [1] [nM]	Ki [2] [nM]	Ki [3] [nM]	Ki [4] [nM]	Compound
20.1	17.1	2.3	1.15	O=[N+]([O-])c1ccc(C2CC(c3c4ccccc4cc4ccccc34)=NN2)cc1 (stereo not drawn)
230	301	–	–	COc1ccc(C2CC(c3c4ccccc4cc4ccccc34)=NN2)cc1 (stereo not drawn)
385	225	6.75	7.51	Oc1ccc(C2CC(c3c4ccccc4cc4ccccc34)=NN2)cc1 (stereo not drawn)
389	250	3.8	3.56	Cc1ccc(C2CC(c3c4ccccc4cc4ccccc34)=NN2)cc1 (stereo not drawn)
320	281	2.1	1.8	Clc1ccc(C2CC(c3c4ccccc4cc4ccccc34)=NN2)cc1 (stereo not drawn)
